Data taken from patent US5091399A, “Antimicrobial compounds and methods of use” (Rohm and Haas Company, priority 1990, dated 1992).
Converted amounts (≈) assume the structure as drawn.

How the values were obtained:
Assay in all cases: MIC test (biocide), serial dilution in Trypticase Soy Broth
Assay type in all cases: cell-based
Staphylococcus aureus = details: pH 7.0, starting concentration 500 ppm
Experimental: (§1) Efficacy tests against eight fungi and four bacteria was carried out. A minimum inhibitory concentration (MIC) value was obtained using Trypticase Soy Broth, pH 7.0, and by preparing serial dilutions with a starting concentration of 500 ppm. A stock solution of the test compound was made in dimethyl sulfoxide (DMSO) or acetone. The MIC's of the compounds of this invention against the test organisms are shown in Table 3. |Test was run in Trypticase Soy Broth, pH 7.0 Starting concentration = 500

Aspergillus niger = details: pH 7.0, starting concentration 500 ppm
Experimental: as §1

Chorella = details: pH 7.0, starting concentration 500 ppm
Experimental: as §1

Escherichia coli = details: pH 7.0, starting concentration 500 ppm
Experimental: as §1

Aureobasidium pullulans = details: pH 7.0, starting concentration 500 ppm
Experimental: as §1

Pseudomonas aeruginosa = details: pH 7.0, starting concentration 500 ppm
Experimental: as §1

Pseudomonas fluorescens = details: pH 7.0, starting concentration 500 ppm
Experimental: as §1

Saccharomyces cerevisiae = details: pH 7.0, starting concentration 500 ppm
Experimental: as §1

Chaetomium globosum = details: pH 7.0, starting concentration 500 ppm
Experimental: as §1

Cladosporium resinae = details: Amorphotheca resinae, pH 7.0, starting concentration 500 ppm
Experimental: as §1

Gleophyllum trabeum = details: pH 7.0, starting concentration 500 ppm
Experimental: as §1

Penicillium funiculosum = details: Talaromyces funiculosus, pH 7.0, starting concentration 500 ppm
Experimental: as §1

Rhodotorula rubra = details: pH 7.0, starting concentration 500 ppm
Experimental: as §1

CCCCCCCCn1sc(Sc2nc3ccccc3s2)c(Cl)c1=O [Compound 2, [4-chloro-2-(n-octyl)-4-isothiazolin-3-on-5-yl]-(benzothiazol-2'-yl)sulfide]
MIC (Staphylococcus aureus): 1 µg/mL (≈ 2.42 µM) | MIC (Aspergillus niger): 63 µg/mL (≈ 153 µM) | MIC (Chorella): 4 µg/mL (≈ 9.68 µM) | MIC (Escherichia coli): > 250 µg/mL | MIC (Aureobasidium pullulans): 32 µg/mL (≈ 77.5 µM) | MIC (Pseudomonas aeruginosa): > 250 µg/mL

Cc1c(Sc2nc3ccccc3s2)sn(-c2ccc(Cl)cc2)c1=O [Compound 3, [4-methyl-2-(4-chlorophenyl)-4-isothiazolin-3-on-5-yl]-(benzothiazol-2'-yl)sulfide]
MIC (Aspergillus niger): 12.5 µg/mL (≈ 32 µM) | MIC (Pseudomonas fluorescens): 0.4 µg/mL (≈ 1.02 µM) | MIC (Pseudomonas aeruginosa): 12.5 µg/mL (≈ 32 µM)

Cn1sc(Sc2nc3ccccc3s2)cc1=O [Compound 1, (2-methyl-4-isothiazolin-3-on-5-yl)-(benzothiazol-2'-yl)sulfide]
MIC (Staphylococcus aureus): 4 µg/mL (≈ 14.3 µM) | MIC (Aspergillus niger): 8 µg/mL (≈ 28.5 µM) | MIC (Saccharomyces cerevisiae): 8 µg/mL (≈ 28.5 µM) | MIC (Chaetomium globosum): 32 µg/mL (≈ 114 µM) | MIC (Cladosporium resinae): 1 µg/mL (≈ 3.57 µM) | MIC (Pseudomonas fluorescens): 8 µg/mL (≈ 28.5 µM) | MIC (Escherichia coli): 500 µg/mL (≈ 1780 µM) | MIC (Gleophyllum trabeum): < 0.1 µg/mL | MIC (Penicillium funiculosum): 8 µg/mL (≈ 28.5 µM) | MIC (Rhodotorula rubra): 16 µg/mL (≈ 57.1 µM) | MIC (Aureobasidium pullulans): 16 µg/mL (≈ 57.1 µM) | MIC (Pseudomonas aeruginosa): > 500 µg/mL
